From patent publication US10045983B2, “Heteroaryl pyridone and aza-pyrodine compounds” (Genentech, Inc., priority 2011, dated 2018)

assay: CD69 Whole Blood Assay (CD69 Hu Blood FACS); assay type: cell-based, human; settings: Homo sapiens, Lymphocyte, read-out: CD69 Hu Blood FACS IC70 (μM)
How it was run: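 Compounds tested for blocking B-cell CD69 induction by flow cytometry in human whole blood, with activation via anti-human IgM goat F(ab′)2 crosslinking of surface IgM.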

Compound	IC70 [µM]
Cn1cc(-c2ccnc(N3CCn4c(cc5c4CCCC5)C3=O)c2CO)cc(Nc2ccc(N3[C@@H]4CC[C@H]3CN(C3COC3)C4)cn2)c1=O [Example 152, 2-{3′-Hydroxymethyl-1-methyl-5-[5-((1 S,5R)-3-oxetan-3-yl-3,8-diaza-bicyclo[3.2.1]oct-8-yl)-pyridin-2-ylamino]-6-oxo-1,6-dihydro-[3,4′]bipyridinyl-2′-yl}-3,4,6,7,8,9-hexahydro-2H-pyrazino[1,2-a]indol-1-one]	0.188

same assay, conditions: Lymphocyte; human whole blood, anti-IgM activated B lymphocytes, FACS; IC70; Table 1; read-out: CD69 Hu Blood FACS IC70

Compound	IC70 [µM]
CN1CCn2nc(Nc3cc(-c4cncc(N5CCn6c(cc7c6CC(C)(C)C7)C5=O)c4CO)cn(C)c3=O)cc2C1 [Example 150, 2-[4-Hydroxymethyl-1′-methyl-5′-(5-methyl-4,5,6,7-tetrahydro-pyrazolo[1,5-a]pyrazin-2-ylamino)-6′-oxo-1′,6′-dihydro-[3,3′]bipyridinyl-5-yl]-7,7-dimethyl-3,4,7,8-tetrahydro-2H,6H-cyclopenta[4,5]pyrrolo[1,2-a]pyrazin-1-one]	0.0316
C[C@@H]1CN(C2COC2)CCN1c1ccc(Nc2cc(-c3ccnc(-n4ccn5c6c(cc5c4=O)CCCC6)c3CO)cn(C)c2=O)nc1 [Example 151, 2-{3′-Hydroxymethyl-1-methyl-5-[5-((R)-2-methyl-4-oxetan-3-yl-piperazin-1-yl)-pyridin-2-ylamino]-6-oxo-1,6-dihydro-[3,4′]bipyridinyl-2′-yl}-6,7,8,9-tetrahydro-2H-pyrazino[1,2-a]indol-1-one]	0.0455
C[C@@H]1CN(C2COC2)CCN1c1ccc(Nc2cc(-c3ccnc(N4CCn5c(cc6c5CC(C)(C)C6)C4=O)c3CO)cn(C)c2=O)nc1 [Example 153, 2-{3′-Hydroxymethyl-1-methyl-5-[5-((R)-2-methyl-4-oxetan-3-yl-piperazin-1-yl)-pyridin-2-ylamino]-6-oxo-1,6-dihydro-[3,4′]bipyridinyl-2′-yl}-7,7-dimethyl-3,4,7,8-tetrahydro-2H,6H-cyclopenta[4,5]pyrrolo[1,2-a]pyrazin-1-one]	0.0238
C[C@@H]1CN(C2COC2)CCN1c1ccc(Nc2cc(-c3ccnc(-n4ncc5c6c(sc5c4=O)CCCC6)c3CO)cn(C)c2=O)nc1 [Example 154, 3-{3′-Hydroxymethyl-1-methyl-5-[5-((R)-2-methyl-4-oxetan-3-yl-piperazin-1-yl)-pyridin-2-ylamino]-6-oxo-1,6-dihydro-[3,4′]bipyridinyl-2′-yl}-6,7,8,9-tetrahydro-3H-benzo[4,5]thieno[2,3-d]pyridazin-4-one]	0.0374
C[C@@H]1CN(c2ccc(Nc3cc(-c4ccnc(N5CCc6c(cc7n6CCCC7)C5=O)c4CO)cn(C)c3=O)nc2)[C@@H](C)CN1C1COC1 [Example 155, 2-{5-[5-((2S,5R)-2,5-Dimethyl-4-oxetan-3-yl-piperazin-1-yl)-pyridin-2-ylamino]-3′-hydroxymethyl-1-methyl-6-oxo-1,6-dihydro-[3,4′]bipyridinyl-2′-yl}-2,3,5,6,7,8-hexahydro-4H-2,4b-diaza-fluoren-1-one]	0.0454
C[C@@H]1CN(c2ccc(Nc3cc(-c4ccnc(N5CCn6c7c(c(F)c6C5=O)CCCC7)c4CO)cn(C)c3=O)nc2)[C@@H](C)CN1C1COC1 [Example 156, 2-{5-[5-((2S,5R)-2,5-Dimethyl-4-oxetan-3-yl-piperazin-1-yl)-pyridin-2-ylamino]-3′-hydroxymethyl-1-methyl-6-oxo-1,6-dihydro-[3,4′]bipyridinyl-2′-yl}-10-fluoro-3,4,6,7,8,9-hexahydro-2H-pyrazino[1,2-a]indol-1-one]	0.0145
C[C@@H]1CN(c2ccc(Nc3cc(-c4cncc(N5CCn6c(cc7c6CCCC7)C5=O)c4CO)cn(C)c3=O)nc2)[C@@H](C)CN1C1COC1 [Example 157]	0.0298
C[C@@H]1CN(c2ccc(Nc3cc(-c4ccnc(N5CCn6c(cc7c6CC(C)(C)C7)C5=O)c4CO)cn(C)c3=O)nc2)[C@@H](C)CN1C1COC1 [Example 158, 2-{5-[5-((2S,5R)-2,5-Dimethyl-4-oxetan-3-yl-piperazin-1-yl)-pyridin-2-ylamino]-3′-hydroxymethyl-1-methyl-6-oxo-1,6-dihydro-[3,4′]bipyridinyl-2′-yl}-7,7-dimethyl-3,4,7,8-tetrahydro-2H,6H-cyclopenta[4,5]pyrrolo[1,2-a]pyrazin-1-one]	0.02
C[C@@H]1CN(c2ccc(Nc3cc(-c4ccnc(-n5ncc6c7c(sc6c5=O)CCCC7)c4CO)cn(C)c3=O)nc2)[C@@H](C)CN1C1COC1 [Example 159, 3-{5-[5-((2S, 5R)-2,5-Dimethyl-4-oxetan-3-yl-piperazin-1-yl)-pyridin-2-ylamino]-3′-hydroxymethyl-1-methyl-6-oxo-1,6-dihydro-[3,4′]bipyridinyl-2′-yl}-6,7,8,9-tetrahydro-3H-benzo[4,5]thieno[2,3-d]pyridazin-4-one]	0.082
C[C@@H]1CN(c2ccc(Nc3cc(-c4ccnc(-n5ccn6c7c(cc6c5=O)CCCC7)c4CO)cn(C)c3=O)nc2)[C@@H](C)CN1C1COC1 [Example 160, 2-{5-[5-((2S, 5R)-2,5-Dimethyl-4-oxetan-3-yl-piperazin-1-yl)-pyridin-2-ylamino]-3′-hydroxymethyl-1-methyl-6-oxo-1,6-dihydro-[3,4′]bipyridinyl-2′-yl}-6,7,8,9-tetrahydro-2H-pyrazino[1,2-a]indol-1-one]	0.0547
CC[C@H]1CN(C2COC2)CCN1c1ccc(Nc2cc(-c3ccnc(N4CCc5c(cc6n5CCCC6)C4=O)c3CO)cn(C)c2=O)nc1 [Example 161, 2-{5-[5-((S)-2-Ethyl-4-oxetan-3-yl-piperazin-1-yl)-pyridin-2-ylamino]-3′-hydroxymethyl-1-methyl-6-oxo-1,6-dihydro-[3,4′]bipyridinyl-2′-yl}-2,3,5,6,7,8-hexahydro-4H-2,4b-diaza-fluoren-1-one]	0.064
Cn1cc(-c2ccnc(N3CCn4c(cc5c4CCCC5)C3=O)c2CO)cc(Nc2cnccn2)c1=O [Example 162, 2-[3′-Hydroxymethyl-1-methyl-6-oxo-5-(pyrazin-2-ylamino)-1,6-dihydro-[3,4′]bipyridinyl-2′-yl]-3,4,6,7,8,9-hexahydro-2H-pyrazino[1,2-a]indol-1-one]	0.434
Cn1cc(-c2ccnc(N3CCn4c(cc5c4CC(C)(C)C5)C3=O)c2CO)cc(Nc2cc3n(n2)CCN(C2COC2)C3)c1=O [Example 163, 2-[3′-Hydroxymethyl-1-methyl-5-(5-oxetan-3-yl-4,5,6,7-tetrahydro-pyrazolo[1,5-a]pyrazin-2-ylamino)-6-oxo-1,6-dihydro-[3,4′]bipyridinyl-2′-yl]-7,7-dimethyl-3,4,7,8-tetrahydro-2H,6H-cyclopenta[4,5]pyrrolo[1,2-a]pyrazin-1-one]	0.0228
CC[C@H]1CN(C2COC2)CCN1c1ccc(Nc2cc(-c3ccnc(N4CCn5c(cc6c5CC(C)(C)C6)C4=O)c3CO)cn(C)c2=O)nc1 [Example 164, 2-{5-[5-((S)-2-Ethyl-4-oxetan-3-yl-piperazin-1-yl)-pyridin-2-ylamino]-3′-hydroxymethyl-1-methyl-6-oxo-1,6-dihydro-[3,4′]bipyridinyl-2′-yl}-7,7-dimethyl-3,4,7,8-tetrahydro-2H,6H-cyclopenta[4,5]pyrrolo[1,2-a]pyrazin-1-one]	0.029
CC[C@H]1CN(C2COC2)CCN1c1ccc(Nc2cc(-c3ccnc(-n4ccn5c6c(cc5c4=O)CCCC6)c3CO)cn(C)c2=O)nc1 [Example 165, 2-{5-[5-((S)-2-Ethyl-4-oxetan-3-yl-piperazin-1-yl)-pyridin-2-ylamino]-3′-hydroxymethyl-1-methyl-6-oxo-1,6-dihydro-[3,4′]bipyridinyl-2′-yl}-6,7,8,9-tetrahydro-2H-pyrazino[1,2-a]indol-1-one]	0.0417
